Assay results published in paper PMC9796789 (The Febs Journal, 2022).
One block for each molecule: values may come before it.

Assays:
[1] = target: T1, SeCrtE (Synechococcus elongatus, UniProt Q31Q61); test: LC-MS of prenyl pyrophosphate products; assay type: biochemical; conditions: 50 µM DMAPP, 100 µM IPP, 10 mM MgCl2, 25 mM MOPSO pH 7.2, 30 °C, 2 h
T1 sequence (Q31Q61 1-301): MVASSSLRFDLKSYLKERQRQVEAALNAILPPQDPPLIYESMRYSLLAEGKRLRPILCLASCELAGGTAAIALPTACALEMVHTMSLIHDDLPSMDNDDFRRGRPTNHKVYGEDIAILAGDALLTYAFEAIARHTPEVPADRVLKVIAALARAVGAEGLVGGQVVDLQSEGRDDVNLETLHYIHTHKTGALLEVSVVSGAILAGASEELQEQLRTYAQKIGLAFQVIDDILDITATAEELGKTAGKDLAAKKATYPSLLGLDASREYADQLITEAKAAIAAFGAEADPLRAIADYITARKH

[2] = target: T2, SyCrtE (Synechocystis sp. PCC 6803, UniProt P72683); test: LC-MS of prenyl pyrophosphate products; assay type: biochemical; conditions: 50 µM DMAPP, 100 µM IPP, 10 mM MgCl2, 25 mM MOPSO pH 7.2, 30 °C, 2 h
T2 sequence (P72683 1-302): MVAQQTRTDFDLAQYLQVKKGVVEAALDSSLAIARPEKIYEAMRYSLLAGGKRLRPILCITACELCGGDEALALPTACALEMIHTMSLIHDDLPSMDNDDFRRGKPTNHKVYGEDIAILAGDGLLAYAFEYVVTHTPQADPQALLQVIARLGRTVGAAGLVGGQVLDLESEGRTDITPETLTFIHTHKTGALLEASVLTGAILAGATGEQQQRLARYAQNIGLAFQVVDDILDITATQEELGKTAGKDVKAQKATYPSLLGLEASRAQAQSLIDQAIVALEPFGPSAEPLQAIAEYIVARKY

[3] = target: CrtE from Synechococcus elongatus sp. PCC 7942 with a C-terminal His-tag (SeCrtE-His) (Synechococcus elongatus sp. PCC 7942); test: crystal structure
[4] = target: the molecule itself; test: crystal structure

Molecule: CC(C)=CCC/C(C)=C/CC/C(C)=C/CC/C(C)=C/COP(=O)(O)OP(=O)(O)O [GGPP]
- LC-MS of prenyl pyrophosphate products [1]: For SeCrtE, only GGPP formation was detected
- LC-MS of prenyl pyrophosphate products [2]: Under identical experimental conditions, SyCrtE produced GGPP, GPP and FPP

- stoichiometry N [3]: 2
Molecule: CrtE from Synechococcus elongatus sp. PCC 7942 with a C-terminal His-tag (SeCrtE-His) (enzyme)

B1: CrtE from Synechocystis sp. PCC 6803 with a C-terminal His-tag (SyCrtE-His) (enzyme)
chain: T2 sequence (P72683 1-302)
- stoichiometry N [4]: 2
